Each molecule was assayed on FOG of α-DG on the cell surfaces (assay: Cell-based HTS/HCS assay, IIH6 antibody as probe (EC1.5)). Conditions: concentration of the compound required to enhance the FOG of α-DG by 50% over the controls; cell-based assays in vitro.
Description: Protein glycosylation is a multiple-step process that requires a large number of proteins in the secretory pathway of the cells. Thus we chose cell-based assay because our goal is to identify enhancer the FOG of α-DG on the cell surfaces. The assay system is HTS/HCS friendly and can adapt to various cell lines including myotubes as well as various readout methods including AlphaScreen, fluorescence density and HCS/fluorescence imaging. The standard operation protocol (SOP) for adhesion cells is described below and the FIG. 1 illustrates the assay process using myoblasts as the controls and screening cells and the IIH6 antibody as the probe. Other adhesion cells such CHO (Chinese hamster ovary) cell line can be implemented into this assay by simply removing the differentiation step.
Cell cultures: All cells are cultured at 37° C., 5% CO2, in appropriate media (F-12 for epithelial cells and DMEM for myoblasts) supplement with 10-20% fetal calf serum (FCS) and 1% antibiotics. […] The cells will be detached with trypsin EDTA and suspended in the cell culture media. The cells will be counted and seeded into the multiple-well plates as desired. Myotubes formation: When the myoblasts reach confluence, change the growth media to differential media (DEME with 2% horse serum) and incubate for 4-5 days.
The cells were fixed, permeablized, and then blocked with 10% BSA in PBS for 1 hour. […] After washing the cells with PBS for 2 times, the DAPI was used to stain the cells for 15 mins and wash 3 times with PBS. The images were captured with an inverted Olympus fluorescent microscope. For small compound localization experiment, the cells are incubated with the biotin conjugated compounds and then the cells were washed and incubated with streptavidin-Dye and then images will be captured to see the location of the compound-target-protein.
H, EC1.5<5 μM; M, EC1.5-20 μM; L, EC1.5 20-50 μM; VL, EC1.5>50 μM.

Compound	Activity (EC1.5)
CCC(c1nnnn1Cc1cccs1)N1CCN(c2nc3c(F)cc(N)cc3s2)CC1 (stereo not drawn) [Compound 50, 6-amino-4-fluoro-2-(4-(1-(1-(thiophen-2-ylmethyl)-1H-tetrazol-5-yl)propyl)piperazin-1-yl)benzothiazole]	H (EC1.5<5 μM)
CCC(c1nnnn1Cc1cccs1)N1CCN(c2nc3ccc(C(=O)O)cc3s2)CC1 (stereo not drawn) [Compound 32, 2-(4-(1-(1-(thiophen-2-ylmethyl)-1H-tetrazol-5-yl)propyl)piperazin-1-yl)benzothiazole-6-carboxylic acid]	L (EC1.5 20-50 μM)
CCC(c1nnnn1CCc1cccs1)N1CCN(c2nc3cc(N)cc(F)c3s2)CC1[N+](=O)[O-] (stereo not drawn) [Compound 64, 5-amino-7-fluoro-2-(4-(1-(1-(thiophen-2-ylethyl)-1H-tetrazol-5-yl)propyl)-3-nitro-piperazin-1-yl)benzothiazole]	H (EC1.5<5 μM)
CCC(NCCNc1nc2cccc(F)c2s1)c1nnnn1Cc1cccs1 (stereo not drawn) [Compound 27, N^1-(7-fluorobenzothiazol-2-yl)-N^2-(1-(1-(thiophen-2-ylmethyl)-1H-tetrazol-5-yl)propyl)ethane-1,2-diamine]	M (EC1.5-20 μM)
CCC(c1nnnn1Cc1cccs1)N1CCN(c2nc3cccc(C(=O)OC)c3s2)CC1 (stereo not drawn) [Compound 35, Methyl 2-(4-(1-(1-(thiophen-2-ylmethyl)-1H-tetrazol-5-yl)propyl)piperazin-1-yl)benzothiazole-7-carboxylate]	L (EC1.5 20-50 μM)
CCC(c1nnnn1Cc1cccs1)N1CCN(c2nc3c(F)cc(N)c(F)c3s2)CC1 (stereo not drawn) [Compound 51, 6-amino-4,7-difluoro-2-(4-(1-(1-(thiophen-2-ylmethyl)-1H-tetrazol-5-yl)propyl)piperazin-1-yl)benzothiazole]	H (EC1.5<5 μM)
CCC(c1nnnn1Cc1cccs1)N1CCN(c2nc3ccc(C(=O)OC)cc3s2)CC1 (stereo not drawn) [Compound 31, methyl 2-(4-(1-(1-(thiophen-2-ylmethyl)-1H-tetrazol-5-yl)propyl)piperazin-1-yl)benzothiazole-6-carboxylate]	L (EC1.5 20-50 μM)
CCC(c1nnnn1Cc1cccs1)N1CCN(c2nc3ccc(F)cc3s2)CC1 (stereo not drawn) [Compound 13, 6-fluoro-2-(4-(1-(1-(thiophen-2-ylmethyl)-1H-tetrazol-5-yl)propyl)piperazin-1-yl)benzothiazole]	L (EC1.5 20-50 μM)
CCC(c1nnnn1Cc1cccs1)N1CCN(c2nc3cc([N+](=O)[O-])cc(F)c3s2)CC1 (stereo not drawn) [Compound 45, 7-fluoro-5-nitro-2-(4-(1-(1-(thiophen-2-ylmethyl)-1H-tetrazol-5-yl)propyl)piperazin-1-yl)benzothiazole]	L (EC1.5 20-50 μM)
CCC(c1nnnn1Cc1cccs1)N1CCN(c2nc3cc([N+](=O)[O-])ccc3s2)CC1 (stereo not drawn) [Compound 28, 5-nitro-2-(4-(1-(1-(thiophen-2-ylmethyl)-1H-tetrazol-5-yl)propyl)piperazin-1-yl)benzothiazole]	M (EC1.5-20 μM)
CCC(c1nnnn1Cc1ccc(F)s1)N1CCN(c2nc3cc(N)cc(F)c3s2)C(C)C1 (stereo not drawn) [Compound 59, 5-amino-7-fluoro-2-(4-(1-(1-(5-fluoro-thiophen-2-ylmethyl)-1H-tetrazol-5-yl)propyl)-2-methyl-piperazin-1-yl)benzothiazole]	H (EC1.5<5 μM)
CCC(c1nnnn1Cc1cccs1)N1CCN(c2nc3ccc(Cl)cc3s2)CC1 (stereo not drawn) [Compound 15, 6-chloro-2-(4-(1-(1-(thiophen-2-ylmethyl)-1H-tetrazol-5-yl)propyl)piperazin-1-yl)benzothiazole]	M (EC1.5-20 μM)
CCC(c1nnnn1Cc1cccs1)N1CCN(c2nc3cc(N)ccc3s2)CC1 (stereo not drawn) [Compound 29, 5-amino-2-(4-(1-(1-(thiophen-2-ylmpthyl)-1H-tetrazol-5-yl)propyl)piperazin-1-yl)benzothiazole]	H (EC1.5<5 μM)
CCC(c1nnnn1Cc1cccs1)N1CCCN(c2nc3cc(N)cc(F)c3s2)CC1 (stereo not drawn) [Compound 71, 5-amino-7-fluoro-2-(4-(1-(1-(thiophen-2-ylmethyl)-1H-tetrazol-5-yl)propyl)1,4-diazepane-1-yl)benzothiazole]	H (EC1.5<5 μM)
CCC(c1nnnn1Cc1ccns1)N1CCN(c2nc3cc(N)cc(F)c3s2)CC1 (stereo not drawn) [Compound 73, 5-amino-7-fluoro-2-(4-(1-(1-(isothiazol-5-ylmethyl)-1H-tetrazol-5-yl)propyl)piperazin-1-yl)benzothiazole]	H (EC1.5<5 μM)
CCC(c1nnnn1Cc1cccs1)N1CCN(c2nc3c(F)c(N)c(N)c(F)c3s2)CC1 (stereo not drawn) [Compound 52, 5,6-diamino-4,7-difluoro-2-(4-(1-(1-(thiophen-2-ylmethyl)-1H-tetrazol-5-yl)propyl)piperazin-1-yl)benzothiazole]	H (EC1.5<5 μM)
CCC(c1nnnn1Cc1cccs1)N1CCCN(c2nc3cc(N)cc(F)c3s2)CCC1 (stereo not drawn) [Compound 72, 5-amino-7-fluoro-2-(5-(1-(1-(thiophen-2-ylmethyl)-1H-tetrazol-5-yl)propyl)1,5-diazocane-1-yl)benzothiazole]	H (EC1.5<5 μM)
CCC(c1nnnn1Cc1cccs1)N1CCN(c2nc3c(F)cccc3s2)CC1 (stereo not drawn) [Compound 30, 4-fluoro-2-(4-(1-(1-(thiophen-2-ylmethyl)-1H-tetrazol-5-yl)propyl)piperazin-1-yl)benzothiazole]	H (EC1.5<5 μM)
CCC(c1nnnn1Cc1cncs1)N1CCN(c2nc3cccc(F)c3s2)CC1 (stereo not drawn) [Compound 42, 7-fluoro-2-(4-(1-(1-(thiazol-5-ylmethyl)-1H-tetrazol-5-yl)propyl)piperazin-1-yl)benzothiazole]	L (EC1.5 20-50 μM)
CCC(c1nnnn1CCc1cccs1)N1CCN(c2nc3cc(N)cc(F)c3s2)CC1[N+](=O)[O-] (stereo not drawn) [Compound 65, 5-amino-7-fluoro-2-(4-(1-(1-(thiophen-2-ylethyl)-1H-tetrazol-5-yl)propyl)-5-nitro-piperazin-1-yl)benzothiazole]	H (EC1.5<5 μM)
CCC(c1nnnn1Cc1cccs1)N1CCN(c2nc3ccc(NC(=O)CCCC[C@@H]4SC[C@@H]5NC(=O)N[C@@H]54)cc3s2)CC1 (stereo partly drawn) [Compound 12, 5-((3aS,4S,6aR)-2-oxohexahydro-1H-thieno[3,4-d]imidazol-4-yl)-N-(2-(4-(1-(1-(thiophen-2-ylmethyl)-1H-tetrazol-5-yl)propyl)piperazin-1-yl)benzothiazol-6-yl)pentanamide]	H (EC1.5<5 μM)
CCC(c1nnnn1Cc1cccs1)N1CCN(c2nc3cccc(F)c3s2)CC1 (stereo not drawn) [Compound 21, 7-fluoro-2-(4-(1-(1-(thiophen-2-ylmethyl)-1H-tetrazol-5-yl)propyl)piperazin-1-yl)benzothiazole]	H (EC1.5<5 μM)
CCC(c1nnnn1Cc1cccs1)N1CCN(c2nc3cccc(Br)c3s2)CC1 (stereo not drawn) [Compound 34, 7-bromo-2-(4-(1-(1-(thiophen-2-ylmethyl)-1H-tetrazol-5-yl)propyl)piperazin-1-yl)benzothiazole]	L (EC1.5 20-50 μM)
CCC(c1nnnn1CCc1cccs1)N1CCN(C2Sc3c(F)cc(N)cc3N2N)CC1 (stereo not drawn) [Compound 61, 5-amino-7-fluoro-3-amino-2-(4-(1-(1-(thiophen-2-ylethyl)-1H-tetrazol-5-yl)propyl)piperazin-1-yl)benzothiazole]	H (EC1.5<5 μM)
CCC(c1nnnn1Cc1ccc([N+](=O)[O-])s1)N1CCN(c2nc3cc(N)cc(F)c3s2)CC1 (stereo not drawn) [Compound 58, 5-amino-7-fluoro-2-(4-(1-(1-(5-nitro-thiophen-2-ylmethyl)-1H-tetrazol-5-yl)propyl)piperazin-1-yl)benzothiazole]	H (EC1.5<5 μM)
CCC(c1nnnn1Cc1cccs1)N1CCN(c2nc3cccnc3s2)CC1 (stereo not drawn) [Compound 24, 2-(4-(1-(1-(thiophen-2-ylmethyl)-1H-tetrazol-5-yl)propyl)piperazin-1-yl)thiazolo[5,4-b]pyridine]	M (EC1.5-20 μM)
CCC(c1nnnn1Cc1cccs1)C1CCCC(c2nc3cc(N)cc(F)c3s2)CC1 (stereo not drawn) [Compound 68, 5-amino-7-fluoro-2-(4-(1-(1-(thiophen-2-ylmethyl)-1H-tetrazol-5-yl)propyl)cycloheptyl)benzothiazole]	H (EC1.5<5 μM)
CCC(c1nnnn1CCc1cccs1)N1CCN(c2nc3cc(N)cc(F)c3s2)CC1 (stereo not drawn) [Compound 55, 5-amino-7-fluoro-2-(4-(1-(1-(thiophen-2-ylethyl)-1H-tetrazol-5-yl)propyl)piperazin-1-yl)benzothiazole]	H (EC1.5<5 μM)
CCC(c1nnnn1CCc1cccs1)N1CCN(c2nc3cc(N)cc(F)c3s2)C([N+](=O)[O-])C1 (stereo not drawn) [Compound 67, 5-amino-7-fluoro-2-(4-(1-(1-(thiophen-2-ylethyl)-1H.tetrazol-5-yl)propyl)-2-nitro-piperazin-1-yl)benzothiazole]	H (EC1.5<5 μM)
CCC(c1nnnn1CCc1cccs1)N1CCCN(c2nc3cc(N)cc(F)c3s2)CC1 (stereo not drawn) [Compound 76, 5-amino-7-fluoro-2-(4-(1-(1-(thiophen-2-ylethyl)-1H-tetrazol-5-yl)propyl)1,4-diazepane-1-yl)benzothiazole]	H (EC1.5<5 μM)
